Laboratory results: US8481551B2, “Gyrase and topoisomerase IV inhibitors” (Vertex Pharmaceuticals Incorporated, priority 2011, dated 2013)
Structures can show the parent of a compound that is named as a salt. Where two headings read alike, the source gives them in different places.

Legend:
[1] = system: Enterobacter cloacae; assay: Gyrase MIC against Gram negatives, microdilution broth method (Protocol 2); type: cell-based; conditions: 12 isolates tested
[2] = system: Mycobacterium tuberculosis; assay: Mycobacterium tuberculosis serum shift MIC assay (Protocol 5); type: cell-based; conditions: ATCC 35801 / ERDMAN
From the text: Protocol 5. Protocol for Mycobacterium tuberculosis Serum Shift MIC Assay
Media Prep: • 1. […] It was important that all media and supplements were sterilized prior to MICs. • 2. Prepared all media below and inoculated as described in next section. Tested all compounds against Mtb using each media. • a. […] 7H9+0.2% glycerol+2 g/L dextrose+0.85 g/L NaCl+0.003 g/L catalase (0% FBS). • c. 2×7H9+0.2% glycerol+2 g/L dextrose+0.85 g/L NaCl+0.003 g/L catalase combined with equal volume Fetal Bovine Serum (50% FBS).
Inoculum Prep: • 1. […] Typically plates were two to three weeks of age when used for this assay due to the slow growth of this organism in culture. • 2. Vortexed well, then sonicated in water bath for 30 sec providing a suspension of ˜10^8 cells/ml. […] Prepared inoculum in each of the three media formulations by diluting the BBL Prompt suspension 1/200 (for example: transferred 0.2 ml of cells to 40 ml of medium) to obtain a starting cell density of ˜10^6 cells/ml. • 4.
After 24 hours the fluorescence of each well was measured at Excitation 492 nm, Emission 595 nm.
Percent inhibition by a given compound was calculated as follows: Percent inhibition=100−([well fluorescence-average background fluorescence]/[DMSO control−average background fluorescence]×100).

[3] = system: Pseudomonas aeruginosa; assay: Gyrase MIC against Gram negatives, microdilution broth method (Protocol 2)
[4] = system: Prevotella spp.; assay: Gyrase MIC, agar dilution method (Protocol 3); type: cell-based; conditions: 13 isolates tested
[5] = system: N. asteroids; assay: MIC determination procedure for Mycobacterium species (Protocol 4); type: cell-based; conditions: N. asteroids 2039
[6] = system: Fusobacterium spp.; assay: Gyrase MIC, agar dilution method (Protocol 3); type: cell-based; conditions: 16 isolates tested
[7] = system: S. aureus (ATCC 29213); assay: Neutropenic rat thigh infection model; type: in vivo, Sprague Dawley rats
From the text: Animals: Specific-pathogen-free, male Sprague Dawley rats weighing between 76 to 100 grams were obtained from Charles River Laboratories, Inc. (Wilmington, Mass.) and utilized in this experiment. Animals were allowed to acclimate for a minimum of seven (7) days before study commencement. Bacteria: The methicillin-sensitive Staphylococcus aureus(MSSA) ATCC strain 29213 was utilized for in vivo experimentation. The test isolate was subcultured twice onto standard microbiological agar media (trypticase soy agar with 5% sheep blood). The second transfer was made less than 24 hours before use in the preparation of the thigh infection model inoculum. Neutropenic Rat Thigh Infection Model: To induce neutropenia, rats were treated with the immunosuppressant cyclophosphamide at 150 mg/kg, administered in 1 ml by intraperitoneal (IP) injection, three day prior to infection. Rats were infected by an intramuscular (IM) 0.2 ml injection into both rear thighs with a 10^7 cfu/ml methicillin-sensitive Staphylococcus aureus 29213 suspension in normal saline. After increasing amounts of time (2-26 hours) the two rear thighs of each animal were harvested, rinsed with sterile saline, weighed, then placed in 50 ml sterile normal saline and placed on wet ice until homogenization. Approximately one-half of the total homogenized sample volume was passed through a large pore filter (to remove cartilage and large clumped pieces of tissue), diluted in saline and cultured onto agar media plates (trypticase soy agar with 5% sheep blood). All culture plates were incubated at approximately 37° C. for 18-24 hours. Colony-forming units were enumerated (in cfu/ml of homogenate) and the median for each treatment and control group was calculated. […] The median cfu/ml per group was compared to the initial bacterial density at 2 hours (Early Control) or that of the time-matched vehicle control group (Late Control; LC) group harvested simultaneously. […] After 2 hours a single group of rats (Early Control (EC) was euthanized and the thighs harvested, homogenized and plated to quantitate S. aureus burdens. The additional infected rats were treated by oral gavage with Vehicle at 10 ml/kg (20% Cavitron/1% HPMCAS-MG; […] The 8-hour treatment groups received a single treatment (QD) and were euthanized and thighs collected for cfu determination 8 hours post treatment (QD), while the 24-hour treatment groups received 2 doses 12 hours apart (q12 h) and were euthanized and thighs collected 24 hours post treatment. […] After 2 hours a single group of rats (Early Control (EC)) was euthanized and the thighs harvested, homogenized and plated to quantitate S. aureus burdens. The additional infected rats were treated by oral gavage with Vehicle at 10 ml/kg (10% Vitamin E/TPGS; […] The 8-hour treatment groups received a single treatment (QD) and were euthanized and thighs collected for cfu determination 8 hours post treatment (QD), while the 24 hour treatment groups received 2 doses 12 hours apart (q12 h) and were euthanized and thighs collected 24 hours post treatment.

[8] = 8 hours after the first dose, 10 mg/kg oral
[9] = Table 8: 10 mg/kg oral, QD, 8 Hours
[10] = Table 8: 10 mg/kg oral, q12 h, 24 Hours
[11] = Table 8: 30 mg/kg oral, QD, 8 Hours
[12] = Table 8: 30 mg/kg oral, q12 h, 24 Hours
[13] = Table 8: 60 mg/kg oral, QD, 8 Hours
[14] = Table 8: 60 mg/kg oral, q12 h, 24 Hours

CCNC(=O)Nc1nc2cc(-c3cnc(C(C)(C)O)nc3)c(F)c([C@H]3CCCO3)c2[nH]1 [Compound 23A, methanesulfonic acid salt of 1-ethyl-3-[6-fluoro-5-[2-(1-hydroxy-1-methyl-ethyl)pyrimidin-5-yl]-7-[(2R)-tetrahydrofuran-2-yl]-1H-benzimidazol-2-yl]urea]
MIC90 [1]: > 8 µg/mL
MIC ([2]; M. tuberculosis Erdman ATCC 35801, read-out: MIC): 0.03 µg/mL
MIC ([2]; M. tuberculosis Erdman ATCC 35801 with Mouse Serum): 0.5 µg/mL
MIC [3]: 0.25 µg/mL
MIC90 [3]: > 8 µg/mL
MIC ([3]; PAO1): > 16 µg/mL
MIC90 [4]: 16 µg/mL
MIC Range [4]: 0.06 to 16 µg/mL
MIC [5]: 1 µg/mL
MIC90 [6]: > 16 µg/mL
bacterial growth compared to early control [7, 8]: held the bacterial growth of SA 29213 to at least the point of stasis
log reduction in burdens compared to time-matched control [7, 8]: ~1.3 log
log reduction in burdens compared to time-matched control ([7]; 8 hours after the first dose, 30 and 60 mg/kg oral): ~2 log
decrease of bacterial burden compared to early control ([7]; 8 hours after the first dose, 60 and 100 mg/kg (so in the source)): 0.5-0.6 logs
log reduction compared to early control ([7]; 24 hours, second dose at 12 hours, 10 mg/kg): approximately 0.8 log
log reductions compared to early control ([7]; 24 hours, second dose at 12 hours, 30 and 60 mg/kg): 1.1-1.2 log
decrease in bacterial density compared to late control ([7]; 24 hours, second dose at 12 hours, all treatment groups (10, 30, 60 mg/kg)): 2.4-2.8 logs
Median Thigh Burden (Log cfu/mL) ([7]; Table 8: 10 mg/kg oral gavage, single treatment (QD), 8 Hours): 5.42 Log cfu/mL
Median Thigh Burden (Log cfu/mL) ([7]; Table 8: 10 mg/kg oral, 2 doses 12 hours apart (q12 h), 24 Hours): 4.59 Log cfu/mL
Log Difference vs. Early Control [7, 9]: 0.05
Log Reduction vs. Late Control (8-hour) [7, 9]: −1.36
Log Difference vs. Early Control [7, 10]: −0.78
Log Difference vs. Late Control (24-hour) [7, 10]: −2.40
Log Difference vs. Early Control [7, 11]: −0.62
Log Reduction vs. Late Control (8-hour) [7, 11]: −2.02
Median Thigh Burden (Log cfu/mL) [7, 11]: 4.75 Log cfu/mL
Log Difference vs. Early Control [7, 12]: −1.06
Log Difference vs. Late Control (24-hour) [7, 12]: −2.68
Median Thigh Burden (Log cfu/mL) [7, 12]: 4.31 Log cfu/mL
Log Difference vs. Early Control [7, 13]: −0.57
Log Reduction vs. Late Control (8-hour) [7, 13]: −1.97
Median Thigh Burden (Log cfu/mL) [7, 13]: 4.80 Log cfu/mL
Log Difference vs. Early Control [7, 14]: −1.18
Log Difference vs. Late Control (24-hour) [7, 14]: −2.80
Median Thigh Burden (Log cfu/mL) [7, 14]: 4.19 Log cfu/mL
